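Results reflect a 48-hour exposure of cells in 96-well plates to compound at five concentrations. Here, GI50 denotes the concentration required for 50% inhibition of growth.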 Active and inactive are the calls of the source. Cut-off read from the data, not from the text of the source: active = GI50 up to about 1.1 µM and inactive = higher.
Legend:
Test in all cases: NCI-60 cell line screen, 48 h
OVCAR-8 = tested on: OVCAR-8
NCI-H23 = tested on: NCI-H23
NCI-H522 = tested on: NCI-H522
NCI-H460 = tested on: NCI-H460
RXF 393 = tested on: RXF 393
RPMI-8226 = tested on: RPMI-8226
SN12C = tested on: SN12C
NCI-H226 = tested on: NCI-H226
HCT-116 = tested on: HCT-116
K562 = tested on: K562
HCT-15 = tested on: HCT-15
IGROV-1 = tested on: IGROV-1
KM-20L2 = tested on: KM-20L2
SK-MEL-5 = tested on: SK-MEL-5
SNB-75 = tested on: SNB-75
UACC-257 = tested on: UACC-257
HCC 2998 = tested on: HCC 2998

Row | Structure (SMILES) | GI50 (OVCAR-8) | GI50 (NCI-H23) | GI50 (NCI-H522) | GI50 (NCI-H460) | GI50 (RXF 393) | GI50 (RPMI-8226) | GI50 (SN12C) | GI50 (NCI-H226) | GI50 (HCT-116) | GI50 (K562) | GI50 (HCT-15) [µM] | GI50 (IGROV-1) | GI50 (KM-20L2) | GI50 (SK-MEL-5) | GI50 (SNB-75) | GI50 (UACC-257) | GI50 (HCC 2998)
1 | CCCCCCCCCCCc1c(O)c(=O)c2c(oc3c(=O)c(CCCCCCCCCCC)c(O)c(=O)c3n2-c2ccc(N(C)C)cc2)c1=O | 23.3 µM (inactive) | 28.7 µM (inactive) | 58.3 µM (inactive) | 18.6 µM (inactive) | 25 µM (inactive) | 91.2 µM (inactive) | 19.2 µM (inactive) | 19.3 µM (inactive) | 17.6 µM (inactive) | 52.8 µM (inactive) | 18.6 | 24.3 µM (inactive) | 19.3 µM (inactive) | 18.7 µM (inactive) | 23.7 µM (inactive) | 20 µM (inactive) | –
2 | Cc1ccc(NC(=O)C(=O)CC(=O)c2c(C)[n+]([O-])c3ccccc3[n+]2[O-])cc1 | 22.8 µM (inactive) | 20.3 µM (inactive) | 20.9 µM (inactive) | 27.9 µM (inactive) | 54.8 µM (inactive) | 24.4 µM (inactive) | 36.5 µM (inactive) | > 100 µM (inactive) | 18.6 µM (inactive) | 21.5 µM (inactive) | 31.8 | 22 µM (inactive) | 30.8 µM (inactive) | 26.8 µM (inactive) | 23.6 µM (inactive) | 24.2 µM (inactive) | 44 µM (inactive)
3 | Nc1nc(Cl)c2ncn(CCCC(c3ccccc3)P(=O)(O)O)c2n1 (stereo unspecified) | > 100 µM (inactive) | > 100 µM (inactive) | > 100 µM (inactive) | > 100 µM (inactive) | – | > 100 µM (inactive) | > 100 µM (inactive) | – | > 100 µM (inactive) | > 100 µM (inactive) | > 100 | > 100 µM (inactive) | > 100 µM (inactive) | > 100 µM (inactive) | > 100 µM (inactive) | > 100 µM (inactive) | > 100 µM (inactive)
4 | Clc1ccc(/N=N/c2nc3ccccc3nc2/N=N/c2ccc(Cl)cc2Cl)c(Cl)c1 | > 100 µM (inactive) | > 100 µM (inactive) | 60.1 µM (inactive) | > 100 µM (inactive) | > 100 µM (inactive) | > 100 µM (inactive) | > 100 µM (inactive) | > 100 µM (inactive) | > 100 µM (inactive) | 44.6 µM (inactive) | > 100 | > 100 µM (inactive) | > 100 µM (inactive) | – | 22.9 µM (inactive) | > 100 µM (inactive) | > 100 µM (inactive)
5 | COc1cc(/C=C/C(=O)c2sc(NNC(C)=O)nc2C)ccc1O | > 100 µM (inactive) | > 100 µM (inactive) | > 100 µM (inactive) | > 100 µM (inactive) | > 100 µM (inactive) | > 100 µM (inactive) | > 100 µM (inactive) | > 100 µM (inactive) | – | > 100 µM (inactive) | > 100 | > 100 µM (inactive) | > 100 µM (inactive) | > 100 µM (inactive) | > 100 µM (inactive) | > 100 µM (inactive) | > 100 µM (inactive)
6 | O=C(CCCCCCCCC(=O)OCCCn1cc(C(=O)NC(=O)OCc2ccccc2)c(=O)[nH]c1=O)OCCCn1cc(C(=O)NC(=O)OCc2ccccc2)c(=O)[nH]c1=O | > 100 µM (inactive) | > 100 µM (inactive) | > 100 µM (inactive) | > 100 µM (inactive) | > 100 µM (inactive) | > 100 µM (inactive) | > 100 µM (inactive) | > 100 µM (inactive) | > 100 µM (inactive) | > 100 µM (inactive) | > 100 | > 100 µM (inactive) | > 100 µM (inactive) | > 100 µM (inactive) | 54.1 µM (inactive) | > 100 µM (inactive) | > 100 µM (inactive)
7 | C/C(=N\NC(=O)CC#N)c1c(O)cc(C)oc1=O | > 100 µM (inactive) | > 100 µM (inactive) | – | > 100 µM (inactive) | – | – | > 100 µM (inactive) | > 100 µM (inactive) | > 100 µM (inactive) | > 100 µM (inactive) | > 100 | > 100 µM (inactive) | > 100 µM (inactive) | > 100 µM (inactive) | > 100 µM (inactive) | > 100 µM (inactive) | > 100 µM (inactive)
8 | CCCCC[C@@H]1CCCC2NC(CCCCCO[Si](c3ccccc3)(c3ccccc3)C(C)(C)C)CCC21 (stereo partly specified) | 17.1 µM (inactive) | 15.7 µM (inactive) | 15 µM (inactive) | 16.2 µM (inactive) | 11.3 µM (inactive) | 5.31 µM (inactive) | 14.7 µM (inactive) | 18.7 µM (inactive) | 11.5 µM (inactive) | 5.25 µM (inactive) | 11.7 | 16.9 µM (inactive) | 10.6 µM (inactive) | 18.4 µM (inactive) | 16 µM (inactive) | 15.2 µM (inactive) | 11.2 µM (inactive)
9 | CC(C)S(=O)(=O)n1c(N)nc2ccc(/C(=N/O)c3ccccc3)cc21 [ENVIROXIME] | 30.3 µM (inactive) | 21.8 µM (inactive) | 17.2 µM (inactive) | 26.1 µM (inactive) | 11.4 µM (inactive) | 10.3 µM (inactive) | 27.8 µM (inactive) | 4.63 µM (inactive) | 18.6 µM (inactive) | 27.2 µM (inactive) | 23.4 | 19 µM (inactive) | 16 µM (inactive) | – | 3.26 µM (inactive) | 44.5 µM (inactive) | 22 µM (inactive)
10 | CCN(CC)c1ccc(/N=C2\C=C(Cl)C(=O)c3ncccc32)c(C)c1 | 4.08 µM (inactive) | 3.24 µM (inactive) | – | 6.56 µM (inactive) | 3.92 µM (inactive) | 3.37 µM (inactive) | 7.41 µM (inactive) | – | 3.24 µM (inactive) | 2.28 µM (inactive) | 3.85 | 11.1 µM (inactive) | 5.65 µM (inactive) | 3.18 µM (inactive) | 14.4 µM (inactive) | 2.48 µM (inactive) | –
11 | CC(C)NC1CCCCC2c3ccccc3C12O (stereo unspecified) | > 100 µM (inactive) | > 100 µM (inactive) | > 100 µM (inactive) | > 100 µM (inactive) | > 100 µM (inactive) | > 100 µM (inactive) | > 100 µM (inactive) | > 100 µM (inactive) | > 100 µM (inactive) | > 100 µM (inactive) | > 100 | – | > 100 µM (inactive) | > 100 µM (inactive) | > 100 µM (inactive) | > 100 µM (inactive) | –
12 | C1=c2ccccc2=C2C(=C(c3ccccc3)C(c3ccccc3)=NN2c2ccccc2)S1 | > 100 µM (inactive) | > 100 µM (inactive) | > 100 µM (inactive) | > 100 µM (inactive) | > 100 µM (inactive) | > 100 µM (inactive) | > 100 µM (inactive) | > 100 µM (inactive) | > 100 µM (inactive) | > 100 µM (inactive) | > 100 | > 100 µM (inactive) | > 100 µM (inactive) | > 100 µM (inactive) | > 100 µM (inactive) | > 100 µM (inactive) | > 100 µM (inactive)
13 | O=C1NC2OCC(O)C(O)C2O1 (stereo unspecified) | > 100 µM (inactive) | > 100 µM (inactive) | > 100 µM (inactive) | > 100 µM (inactive) | – | – | > 100 µM (inactive) | – | > 100 µM (inactive) | > 100 µM (inactive) | > 100 | > 100 µM (inactive) | > 100 µM (inactive) | > 100 µM (inactive) | > 100 µM (inactive) | > 100 µM (inactive) | > 100 µM (inactive)
14 | COCN/C(N)=N/C#N | > 100 µM (inactive) | > 100 µM (inactive) | > 100 µM (inactive) | > 100 µM (inactive) | > 100 µM (inactive) | > 100 µM (inactive) | > 100 µM (inactive) | > 100 µM (inactive) | 75 µM (inactive) | > 100 µM (inactive) | 15.7 | > 100 µM (inactive) | > 100 µM (inactive) | > 100 µM (inactive) | > 100 µM (inactive) | > 100 µM (inactive) | > 100 µM (inactive)
15 | O=c1c(Sc2c(O)c3ccccc3c3ccccc3c2=O)c(O)c2ccccc2c2ccccc12 | 45.3 µM (inactive) | 23.7 µM (inactive) | 13.4 µM (inactive) | 17.6 µM (inactive) | 50.7 µM (inactive) | 19.8 µM (inactive) | 20.9 µM (inactive) | – | – | 33.7 µM (inactive) | 20.5 | 47.2 µM (inactive) | 37.4 µM (inactive) | 29.9 µM (inactive) | > 100 µM (inactive) | 41.9 µM (inactive) | 32.7 µM (inactive)
16 | C=CCc1cc(OC)c2c(c1)C(O)CC(c1ccc(OC)c(OC)c1)O2 (stereo unspecified) | > 100 µM (inactive) | > 100 µM (inactive) | > 100 µM (inactive) | > 100 µM (inactive) | – | – | > 100 µM (inactive) | > 100 µM (inactive) | > 100 µM (inactive) | 16.3 µM (inactive) | > 100 | > 100 µM (inactive) | > 100 µM (inactive) | 58.3 µM (inactive) | 89.5 µM (inactive) | 72.4 µM (inactive) | > 100 µM (inactive)
17 | COc1ccc(O)c2c1C(=O)CCCC2=O | > 100 µM (inactive) | > 100 µM (inactive) | > 100 µM (inactive) | > 100 µM (inactive) | – | > 100 µM (inactive) | > 100 µM (inactive) | – | > 100 µM (inactive) | > 100 µM (inactive) | > 100 | > 100 µM (inactive) | > 100 µM (inactive) | > 100 µM (inactive) | – | > 100 µM (inactive) | > 100 µM (inactive)
18 | Nc1nc(SCC(=O)c2ccccc2)c2[nH]cnc2n1 | > 100 µM (inactive) | > 100 µM (inactive) | > 100 µM (inactive) | > 100 µM (inactive) | – | > 100 µM (inactive) | > 100 µM (inactive) | > 100 µM (inactive) | > 100 µM (inactive) | > 100 µM (inactive) | > 100 | > 100 µM (inactive) | > 100 µM (inactive) | > 100 µM (inactive) | 21.9 µM (inactive) | > 100 µM (inactive) | > 100 µM (inactive)

From ChEMBL document CHEMBL1201862, “PubChem BioAssay data set” (2004)
